Data published in patent publication US4389398A, “Amino glycoside antibiotics having antiprotozoal and anthelmintic activity” (priority 1978, dated 1983).
In brackets after ≈: the same amount, converted by molar mass. Where two headings read alike, the source gives them in different places.

How the values were obtained:
Entamoeba histolytica [1] = experiment: Stated activity against Entamoeba histolytica
[2] = test system: Staphylococcus aureus Gray; experiment: Protective activity in mice, Staphylococcus aureus Gray infection; type: in vivo; conditions: sc, subcutaneous one hour after infection, survivors at 48 hours, read-out: PD50
Procedure: (§1) Infected non-treated controls die in about 18 to 24 hours. Generally 5-7 dose levels are administered to mice weighing about 20 grams in groups of 7-10.

[3] = test system: Pseudomonas aeruginosa SC; experiment: Protective activity in mice, Pseudomonas aeruginosa SC infection; type: in vivo; conditions: subcutaneous one hour after infection, survivors at 48 hours, read-out: PD50
Procedure: as §1

Syphacia obvelata [4] = experiment: Stated anthelmintic activity against pinworms such as Syphacia obvelata
Shigella sp. M324 = experiment: In vitro minimal inhibitory concentration, Shigella sp. M324; type: cell-based; conditions: free base; yeast beef broth medium, pH 7.4
Procedure: (§2) In Table III below is set forth the in vitro minimal inhibitory concentration of gentamicin B, gentamicin B1 and gentamicin X all in the free base form against a variety of gram positive and gram negative microorganisms. The experiments were carried out in a yeast beef broth medium at pH 7.4.

Staphylococcus aureus = experiment: In vitro minimal inhibitory concentration, Staphylococcus aureus; type: cell-based; conditions: pH 7.4
Procedure: as §2

Sarcina lutea = experiment: In vitro minimal inhibitory concentration, Sarcina lutea; type: cell-based; conditions: pH 7.4
Procedure: as §2

Escherichia coli = experiment: In vitro minimal inhibitory concentration, Escherichia coli; type: cell-based; conditions: pH 7.4
Procedure: as §2

[5] = Chronic toxicity (ataxia) in cats after daily subcutaneous dosing; type: in vivo
From the text: There appears to be a causal relationship between high doses of amino-glycoside type antibiotics given over an extended period of time and vestibular damage wherein one of the early manifestations is ataxia. […] Moreover, they may be used at such dosages for a time interval substantially beyond that normally required to eliminate infection without causing ataxia; and with minimal, if any, toxic manifestations. Thus, gentamicin B and gentamicin B1 represent a substantial improvement over antibiotics of this class (amino-glycoside) that are currently in use.

Acute toxicity in mice = conditions: mouse
Procedure: The acute toxicity of gentamicin B, gentamicin B1 and gentamicin X is determined in male CF-1 (Carworth Farms) mice weighing about 20 grams each.

Salmonella paratyphi B = experiment: Protective activity in mice, Salmonella paratyphi B infection; type: in vivo; conditions: Salmonella enterica, sc, subcutaneous one hour after infection, survivors at 48 hours, read-out: PD50
Procedure: as §1

Aerobacter aerogenes = experiment: In vitro minimal inhibitory concentration, Aerobacter aerogenes; type: cell-based; conditions: pH 7.4
Procedure: as §2

Histomonas meleagridis = experiment: Stated activity against Histomonas meleagridis
[6] = test system: Staphylococcus aureus Smith; experiment: Protective activity in mice, Staphylococcus aureus Smith infection; type: in vivo; conditions: sc, subcutaneous one hour after infection, survivors at 48 hours, read-out: PD50
Procedure: as §1

Staphylococcus aureus W = experiment: Protective activity in mice, Staphylococcus aureus W infection; type: in vivo; conditions: sc, subcutaneous one hour after infection, survivors at 48 hours, read-out: PD50
Procedure: as §1

Trichomonas vaginalis [7] = experiment: In vitro activity against Trichomonas vaginalis; type: cell-based; conditions: for MIC / MBC: Trichomonas vaginalis; for MIC: read-out: Minimal 99% Suppression Level; for MBC: read-out: Minimal Cidal Level
From the text: In Table VI below is set forth the in vitro activity of the compounds of this invention against T. vaginalis. The test procedure used was substantially as described by R. J. Schnitzer on pages 289-331 in Experimental Chemotherapy, Volume 1, Academic Press, New York (1963).

Streptococcus pyogenes = experiment: In vitro minimal inhibitory concentration, Streptococcus pyogenes; type: cell-based; conditions: pH 7.4
Procedure: as §2

Bacillus subtilis = experiment: In vitro minimal inhibitory concentration, Bacillus subtilis; type: cell-based; conditions: pH 7.4
Procedure: as §2

Klebsiella pneumoniae = experiment: In vitro minimal inhibitory concentration, Klebsiella pneumoniae; type: cell-based; conditions: pH 7.4
Procedure: as §2

Pseudomonas aeruginosa = experiment: In vitro minimal inhibitory concentration, Pseudomonas aeruginosa; type: cell-based; conditions: pH 7.4
Procedure: as §2

Streptococcus pyogenes C = experiment: Protective activity in mice, Streptococcus pyogenes C infection; type: in vivo; conditions: sc, subcutaneous one hour after infection, survivors at 48 hours, read-out: PD50
Procedure: as §1

Trichomonas foetus = experiment: Stated activity against Trichomonas foetus
Syphacia obvelata [8] = experiment: Anthelmintic activity in vivo against Syphacia obvelata in mice; set-up: species or system male Millerton mice; conditions: for anthelmintic activity (in words): male Millerton mice
Trichomonas vaginalis [9] = experiment: Stated activity against Trichomonas vaginalis
Entamoeba hystolytica = experiment: Activity against Entamoeba hystolytica (MIC and minimal cidal concentration); type: cell-based; conditions: 48 hours
Escherichia coli SC = experiment: Protective activity in mice, Escherichia coli SC infection; type: in vivo; conditions: subcutaneous one hour after infection, survivors at 48 hours, read-out: PD50
Procedure: as §1

Trichomonas vaginalis [10] = conditions: at somewhat high dose ranges; cited from earlier work
Entamoeba histolytica [11] = conditions: Albach et al., Am. J. Trop. Med. Hyg. 15, 885 (1965); cited from earlier work
protozoa = conditions: cited from earlier work
helminths = conditions: cited from earlier work
[12] = free base, yeast beef broth medium, read-out: MIC

CNC1C(O)C(OC2C(N)CC(N)C(OC3OC(C(C)N)C(O)C(O)C3O)C2O)OCC1(C)O (centres unmarked) [Gentamicin B1]
antiprotozoal activity (in words) (Entamoeba histolytica [1]): to a lesser extent | ED50 [2]: 30 mg/kg | ED50 [3]: 2 mg/kg | anthelmintic activity (in words) (Syphacia obvelata [4]): effective | MIC (Shigella sp. M324): 5 µg/mL (≈ 10.1 µM) | MIC (Staphylococcus aureus; [12]): 0.3 to 3 µg/mL (≈ 0.604 to 6.04 µM) | MIC (Sarcina lutea; [12]): 0.3 µg/mL (≈ 0.604 µM) | MIC (Escherichia coli; [12]): 0.08 to 0.3 µg/mL (≈ 0.161 to 0.604 µM) | Average No. Days to become ataxic ([5]; 40 mg/kg/day subcutaneous): 108.0 days | Average No. Days to become ataxic ([5]; 60 mg/kg/day subcutaneous): 69.0 days | Average No. Days to become ataxic ([5]; 240 mg/kg/day subcutaneous): 21.0 days | period of administration to cause impairment of the "righting reflex" and ataxia (in words) ([5]; high doses): required substantially longer periods of administration at high doses | ataxic potential (in words) ([5]; see Table VIII): low ataxic potential | LD50 (Acute toxicity in mice; in vivo, ip): 1600 mg/kg | LD50 (Acute toxicity in mice; in vivo, iv): 230 mg/kg | LD50 (Acute toxicity in mice; in vivo, po): > 250 mg/kg | LD50 (Acute toxicity in mice; in vivo, sc): > 1500 mg/kg | ED50 (Salmonella paratyphi B): 4 mg/kg | MIC (Aerobacter aerogenes; [12]): 0.08 µg/mL (≈ 0.161 µM) | antiprotozoal activity (in words) (Histomonas meleagridis): to a lesser extent | ED50 [6]: 2.5 mg/kg | ED50 (Staphylococcus aureus W): 50 mg/kg | MIC (Trichomonas vaginalis [7]; 24 hours): 25 µg/mL (≈ 50.3 µM) | MBC (Trichomonas vaginalis [7]; 24 hours): > 250 µg/mL | MIC (Trichomonas vaginalis [7]; 48 hours): 10 to 25 µg/mL (≈ 20.1 to 50.3 µM) | MBC (Trichomonas vaginalis [7]; 48 hours): 25 µg/mL (≈ 50.3 µM) | MIC (Streptococcus pyogenes; [12]): 3 µg/mL (≈ 6.04 µM) | MIC (Bacillus subtilis; [12]): 3 µg/mL (≈ 6.04 µM) | MIC (Klebsiella pneumoniae; [12]): 3 µg/mL (≈ 6.04 µM) | MIC (Pseudomonas aeruginosa; [12]): 0.08 µg/mL (≈ 0.161 µM) | ED50 (Streptococcus pyogenes C): 18 mg/kg

CNC1C(O)C(OC2C(N)CC(N)C(OC3OC(CO)C(O)C(O)C3N)C2O)OCC1(C)O (centres unmarked) [Gentamicin X]
antiprotozoal activity (in words) (Entamoeba histolytica [1]): effective | antiprotozoal activity (in words) (Trichomonas foetus): effective | ED50 [2]: 4 mg/kg | ED50 [3]: 7 mg/kg | anthelmintic activity (in words) (Syphacia obvelata [4]): effective | MIC (Staphylococcus aureus; [12]): 0.08 to 0.75 µg/mL (≈ 0.166 to 1.55 µM) | anthelmintic effect (in words) (Syphacia obvelata [8]; 62 mg/kg/day): partially effective | % Infected (Syphacia obvelata [8]; 62 mg/kg/day, 0.05% in diet): 83% | Mean Worm Burden (Syphacia obvelata [8]; 62 mg/kg/day, 0.05% in diet): 27 | anthelmintic effect (in words) (Syphacia obvelata [8]; 310 mg/kg/day): totally effective | % Infected (Syphacia obvelata [8]; 310 mg/kg/day, 0.25% in diet): 0% | Mean Worm Burden (Syphacia obvelata [8]; 310 mg/kg/day, 0.25% in diet): 0 | anthelmintic activity (in words) (Syphacia obvelata [8]): exhibit anthelmintic activity | MIC (Escherichia coli; [12]): 0.3 µg/mL (≈ 0.622 µM) | LD50 (Acute toxicity in mice; in vivo, ip): > 1000 mg/kg | LD50 (Acute toxicity in mice; in vivo, iv): 225 mg/kg | antiprotozoal activity (in words) (Trichomonas vaginalis [9]): effective | antiprotozoal activity (in words) (Histomonas meleagridis): effective | MIC (Trichomonas vaginalis [7]; 48 hours): 2.5 µg/mL (≈ 5.18 µM) | MBC (Trichomonas vaginalis [7]; 48 hours): 10 µg/mL (≈ 20.7 µM) | MIC (Streptococcus pyogenes; [12]): 0.3 to 0.75 µg/mL (≈ 0.622 to 1.55 µM) | MIC (Bacillus subtilis; [12]): 0.03 µg/mL (≈ 0.0622 µM) | MIC (Klebsiella pneumoniae; [12]): 0.75 µg/mL (≈ 1.55 µM) | MIC (Pseudomonas aeruginosa; [12]): 0.3 to 0.75 µg/mL (≈ 0.622 to 1.55 µM) | MBC (Entamoeba hystolytica): 7 µg/mL (≈ 14.5 µM) | MIC (Entamoeba hystolytica; read-out: minimal inhibitory concentration): 4 µg/mL (≈ 8.29 µM) | ED50 (Escherichia coli SC): 1.5 mg/kg

Gentamicin C [Garamycin®, reference compound]
activity against T. vaginalis (in words) (Trichomonas vaginalis [10]): only slight activity | Minimal 99% Suppression Level (Trichomonas vaginalis [7]; 24 hours): 250 µg/mL | Minimal Cidal Level (Trichomonas vaginalis [7]; 24 hours): > 250 µg/mL | Minimal 99% Suppression Level (Trichomonas vaginalis [7]; 48 hours): 100 µg/mL | Minimal Cidal Level (Trichomonas vaginalis [7]; 48 hours): 100 µg/mL | activity against E. histolytica (in words) (Entamoeba histolytica [11]): relatively ineffective

CNC1C(O)C(OC2C(N)CC(N)C(OC3OC(CN)C(O)C(O)C3O)C2O)OCC1(C)O (centres unmarked) [Gentamicin B]
antiprotozoal activity (in words) (Entamoeba histolytica [1]): to a lesser extent | ED50 [2]: 20 mg/kg | ED50 [3]: 2 mg/kg | anthelmintic activity (in words) (Syphacia obvelata [4]): effective | MIC (Shigella sp. M324): 5 µg/mL (≈ 10.4 µM) | MIC (Staphylococcus aureus): 0.3 to 3 µg/mL (≈ 0.622 to 6.22 µM) | % Infected (Syphacia obvelata [8]; 8 mg/kg/day, 0.008% in diet): 67% | Mean Worm Burden (Syphacia obvelata [8]; 8 mg/kg/day, 0.008% in diet): 29.5 | % Infected (Syphacia obvelata [8]; 39 mg/kg/day, 0.02% in diet): 0% | Mean Worm Burden (Syphacia obvelata [8]; 39 mg/kg/day, 0.02% in diet): 0 | % Infected (Syphacia obvelata [8]; 100 mg/kg/day, 0.0625% in diet): 0% | Mean Worm Burden (Syphacia obvelata [8]; 100 mg/kg/day, 0.0625% in diet): 0 | % Infected (Syphacia obvelata [8]; 259 mg/kg/day, 0.25% in diet): 0% | Mean Worm Burden (Syphacia obvelata [8]; 259 mg/kg/day, 0.25% in diet): 0 | minimal effective dose (Syphacia obvelata [8]; Syphacia obvelata, read-out: minimum dosage with anthelmintic activity): 39 mg/kg/day | anthelmintic activity (in words) (Syphacia obvelata [8]): exhibit anthelmintic activity | MIC (Sarcina lutea): 0.3 µg/mL (≈ 0.622 µM) | MIC (Escherichia coli): 0.03 to 0.3 µg/mL (≈ 0.0622 to 0.622 µM) | ataxic potential (in words) ([5]; in vivo): low ataxic potential | period of administration to cause impairment of the "righting reflex" and ataxia (in words) ([5]; in vivo): required substantially longer periods of administration at high doses | LD50 (Acute toxicity in mice; ip): 1750 mg/kg | LD50 (Acute toxicity in mice; iv): 228 mg/kg | LD50 (Acute toxicity in mice; po): > 250 mg/kg | LD50 (Acute toxicity in mice; sc): > 1500 mg/kg | ED50 (Salmonella paratyphi B): 5 mg/kg | MIC (Aerobacter aerogenes): 0.08 µg/mL (≈ 0.166 µM) | antiprotozoal activity (in words) (Histomonas meleagridis): to a lesser extent | ED50 [6]: 5 mg/kg | ED50 (Staphylococcus aureus W): 50 mg/kg | MIC (Trichomonas vaginalis [7]; 24 h): 25 µg/mL (≈ 51.8 µM) | MBC (Trichomonas vaginalis [7]; 24 h): > 250 µg/mL | MIC (Trichomonas vaginalis [7]; 48 h): 25 µg/mL (≈ 51.8 µM) | MBC (Trichomonas vaginalis [7]; 48 h): 25 µg/mL (≈ 51.8 µM) | MIC (Streptococcus pyogenes): 3 µg/mL (≈ 6.22 µM) | MIC (Bacillus subtilis): 0.8 µg/mL (≈ 1.66 µM) | MIC (Klebsiella pneumoniae): 3 µg/mL (≈ 6.22 µM) | MIC (Pseudomonas aeruginosa): 0.03 to 0.08 µg/mL (≈ 0.0622 to 0.166 µM) | ED50 (Streptococcus pyogenes C): 15 mg/kg

NC[C@@H]1O[C@H](O[C@H]2[C@@H](O)[C@H](O[C@@H]3[C@@H](O)[C@H](N)C[C@H](N)[C@H]3O[C@H]3O[C@H](CO)[C@@H](O)[C@H](O)[C@H]3N)O[C@@H]2CO)[C@H](N)[C@@H](O)[C@@H]1O [paromomycin]
antiprotozoal activity (in words) (protozoa): known to exhibit antiprotozoal activity to any substantial degree | anthelmintic activity (in words) (helminths): exhibit anthelmintic activity in reasonably useful dosage ranges
